“Also recorded” adds a separate entry of the source.
Legend:
Type in all cases: cell-based, human
[1] = tested on: caspase 3; assay: Caspase 3 colorimetric assay in HeLa cells; settings: 0.5 μM, 24 h
Procedure: (§1) Possible activation of caspase 3, -6 and -8 was investigated by means of caspase 3, caspase 6 and FLICE/caspase 8 colorimetric kits, respectively. Cells (1,000,000) were seeded with an overnight attachment policy. After 24 h of exposure to 0.5 μM of the sulphamoylated 2ME2 analogues, cells were detached with trypsin and centrifuged at 13,000× g. Cells (500,000) were resuspended in 50 µl of chilled cell lysis buffer and incubated on ice for 10 min. Cells were centrifuged at 10,000×g for a min. Supernatant was transferred to a fresh tube and put on ice. After determination of the protein concentration using the bicinchoninic acid (BCA) protein assay (Thermo Fisher Scientific, Johannesburg, South Africa), 100 µg protein/50 µl cell lysis buffer was mixed with 50 µl 2X reaction buffer (containing 10 mM Dithiothreitol (DTT)). Ac-Asp-Glu-Val-Asp-p-nitroanilide (Ac-DEVD-pNA) (5 µl of 4 mM) (caspase-3-specific substrate), or 5 µl 4 mM […] (Ac-VEID-pNA) (caspase-6-specific substrate), or 5 µl 4 mM Ac-Ile-Glu-Thr-Asp-p-nitroanilide (Ac-IETD-pNA) (caspase-8-specific substrate) was added and the mixture was incubated at 37°C for 120 min (200 µM final concentration). Absorbance was determined at 405 nm on the ELx800 Universal Microplate Reader available from Bio-Tek Instruments Inc. (Vermont, United States of America).

[2] = tested on: MDA-MB-231 cells; assay: Double immunofluorescence of intracellular microtubules; settings: MDA-MB-231, 24 h; 0.189 μM ESE-15-one, 0.5 μM EMBS and ESE-16, 1μM colchicine
Procedure: (§2) In order to visualize the effect of the 2ME2 analogues on microtubule dynamics and integrity, a double immunofluorescence technique using antibodies against tyrosinated and detyrsosinated tubulin was conducted as described by Paturle-Lafanechère et al. (2004). HeLa and MDA-MB-231 cells were seeded onto sterilized coverslips and allowed to grow to 80% confluency for 48 h. Cells were exposed to 0.189 μM ESE-15-one, 0.5 μM EMBS and ESE-16 along with DMSO (negative control) and 1μM colchicine as a positive control for 24 h. Cells were permeablised permeabilized with warmed OPT buffer (80 mmol/L Pipes, […], […], 0.5% Triton X-100 and glycerol 10%, pH 6.8), followed by fixation in ice-cold methanol at −20°C and were subsequently incubated with the primary antibody cocktail (PBS containing anti-detyrosinated tubulin (L4), anti-[…], BSA 0.3%, tween 0.1%). After incubation, cells were incubated with the secondary antibodies, namely Alexa 488 (Invitrogen) and Cy3 (Jackson ImmunoResearch laboratories). Samples were visualized using a Zeiss AxioImager Z1 microscope controlled by Axiovision softwared (Carl Zeiss) (X63 oil objective). Images were captured using an Ocra R2 N/B camera (Hamamatsu) and assessed for microtubule integrity and ratio of tyrosinated to detyrosinated tubulin.

[3] = tested on: HeLa cells; assay: as above; settings: 24 h, 0.189 μM ESE-15-one, 0.5 μM EMBS and ESE-16, 1μM colchicine
Procedure: as §2

[4] = tested on: caspase-6; assay: Caspase 6 colorimetric assay; settings: 0.5 μM, 24 h
Procedure: as §1

[5] = tested on: caspase 3; assay: Caspase 3 colorimetric assay in MDA-MB-231 cells; settings: MDA-MB-231, 0.5 μM, 24 h
Procedure: as §1

[6] = tested on: HeLa cells; assay: Mitochondrial membrane potential assay (Mitocapture, flow cytometry); settings: 0.5 μM analogues (2-methoxyestradiol-bis-sulphamate 0.55 μM), 24 h
Procedure: Cells (500,000) were seeded with an overnight attachment policy. After 24 h of exposure to 0.5 μM of the sulphamoylated 2ME2 analogues, cells were detached using trypsin and centrifuged at 13,000×g.

SMILES	caspase 3 activity compared to vehicle-treated cells [1]	microtubule integrity [2]	microtubule integrity [3]	caspase-6 activity ratio compared to vehicle-treated cells [4]	caspase 3 activity [5]	cells with reduced mitochondrial potential [6] [%]
CCc1cc2c(cc1OS(N)(=O)=O)CC[C@@H]1C2CC[C@]2(C)[C@@H](OS(N)(=O)=O)CC[C@@H]12 (stereo partly drawn) [EMBS, (8R, 13S, 14S, 17S)-2-ethyl-13-methyl-7,8,9, 11, 12,13, 14, 15, 16, 17-decahydro-6H-cyclopenta [a] phenanthrane-3, 17-diyl bis (sulphamate)]	more than doubled	detyrosinated microtubule fragments	microtubule abrogation; also recorded: fragmented microtubules	3.1	–	–
CCc1cc2c(cc1OS(N)(=O)=O)CC[C@@H]1[C@@H]2CC[C@]2(C)C(=O)C=C[C@@H]12 [ESE-15-one, 2-Ethyl-3-O-sulphamoyl-estra-1,3,5 (10) 15-tetraene-3-ol-17one]	more than doubled	detyrosinated microtubule fragments	microtubule abrogation; also recorded: altered microtubule morphology	–	most affected	72

Reference: article PMC3764137, “Sulphamoylated 2-Methoxyestradiol Analogues Induce Apoptosis in Adenocarcinoma Cell Lines” (PLoS ONE, 2013)
